Data reported in ChEMBL document CHEMBL1146515, “Four new triterpenoids from Maytenus ilicifolia” (J Nat Prod, 2004).
≈ marks a conversion by molar mass, not a printed value. Calls of active or inactive are those of the source. The calls are words filed in the database; no cut-off is given here.

What was measured:
Type in all cases: functional, cell-based
KB = assay: Cytotoxicity against vincristine-sensitive human KB cells after 72 hrs by alamar blue assay
HL-60 = assay: Induction of human HL60 cell differentiation assessed as morphological change at 0.05 to 25 ug/ml by phase-contrast microscopy
KB/VJ300 [1] = assay: Reversal of vincristine resistance in human KB/VJ300 cells
KB/VJ300 [2] = assay: Cytotoxicity against vincristine-resistant human KB/VJ300 cells after 72 hrs by alamar blue assay
Homo sapiens = species: Homo sapiens; assay: Cytotoxicity against human KU-19-20 cells after 72 hrs by alamar blue assay

SMILES | IC50 (KB) [µg/mL] | Activity (HL-60) | Activity (KB/VJ300 [1]) | Activity (KB/VJ300 [2]) | Activity (Homo sapiens)
C[C@H]1[C@H](C)CC[C@]2(CO)CC[C@]3(C)C(=CC[C@@H]4[C@@]5(C)CC[C@H](OC(=O)/C=C/c6ccc(O)c(O)c6)C(C)(C)[C@@H]5CC[C@]43C)[C@H]12 | > 10 | inactive | inactive |  | 
C=C(C)[C@@H]1CC[C@]2(CO)CC[C@]3(C)[C@H](CC[C@@H]4[C@@]5(C)CC[C@H](OC(=O)/C=C/c6ccc(O)c(O)c6)C(C)(C)[C@@H]5CC[C@]43C)[C@@H]12 | > 10 | inactive | inactive |  | 
CC1(C)CC[C@]2(CO)CC[C@]3(C)C(=CC[C@@H]4[C@@]5(C)CC[C@H](OC(=O)/C=C/c6ccc(O)c(O)c6)C(C)(C)[C@@H]5CC[C@]43C)[C@H]2C1 | > 10 | inactive | inactive |  | 
C=C(C)[C@@H]1CC[C@]2(CO)CC[C@]3(C)[C@H](CC[C@@H]4[C@@]5(C)CC[C@H](O)C(C)(C)[C@@H]5CC[C@]43C)[C@@H]12 [BETULIN] | > 10 | inactive | inactive |  | 
CC1(C)CC[C@]2(CO)CC[C@]3(C)C(=CC[C@@H]4[C@@]5(C)CC[C@H](O)C(C)(C)[C@@H]5CC[C@]43C)[C@@H]2C1 [ERYTHRODIOL] | 7 (≈ 15.8 µM) | inactive | inactive | Active | Active
C=C(C)[C@@H]1CC[C@]2(CO)CC[C@]3(C)[C@H](CC[C@@H]4[C@@]5(C)C[C@@H](O)C(=O)C(C)(C)[C@@H]5CC[C@]43C)[C@H]12 [MAYTEFOLIN A] | > 10 | inactive | inactive |  | 
